Experimental data taken from PMC6609467 (ChemMedChem, 2019).

How the values were obtained:
NDM-1 [1] = molecular target: T1, NDM-1 (Klebsiella pneumoniae, UniProt C7C422); assay: Inhibition of NDM-1 catalyzed meropenem hydrolysis; format: biochemical
ZnZn-NDM-1 = ZnZn-NDM-1 (Klebsiella pneumoniae, UniProt C7C422); assay: Equilibrium dialysis, Zn; format: binding; conditions: for Zn(II) removal from NDM-1 in equilibrium dialysis: NDM-1 8 μM, compound 16 - 128 μM; for Zn(II) removal from NDM-1 at 32 μM compound: Figure S2; for Zn(II) retained by NDM-1 at highest tested concentration: 128 μM compound; for Inhibition mechanism against NDM-1: from equilibrium dialysis and UV-vis of CoCo-NDM-1
IMP-1 = IMP-1 (Serratia marcescens, UniProt P52699); assay: Inhibition of IMP-1 catalyzed Fluorocillin hydrolysis; format: biochemical
NDM-1 [2] = molecular target: T1, NDM-1; assay: Inhibition of NDM-1 catalyzed Fluorocillin hydrolysis; format: biochemical
VIM-2 = VIM-2 (Escherichia coli, UniProt Q5U7L7); assay: Inhibition of VIM-2 catalyzed Fluorocillin hydrolysis; format: biochemical
NDM-1 [3] = molecular target: T1, NDM-1; conditions: meropenem as substrate of NDM-1
NDM-1 [4] = molecular target: T1, NDM-1; conditions: read-out: KM, NDM-1; Fluorocillin as substrate; ref [28], [43]; cited from earlier work

IMP-1, sequence (P52699 19-246, species assumed): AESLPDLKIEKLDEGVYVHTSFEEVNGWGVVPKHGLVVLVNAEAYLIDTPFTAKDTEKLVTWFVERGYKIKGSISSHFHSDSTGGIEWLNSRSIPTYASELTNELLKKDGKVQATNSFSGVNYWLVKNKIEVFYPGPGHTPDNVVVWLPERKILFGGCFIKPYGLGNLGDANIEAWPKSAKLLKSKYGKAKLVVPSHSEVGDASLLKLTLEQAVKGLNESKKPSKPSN
ZnZn-NDM-1, sequence (C7C422 29-270, looked up): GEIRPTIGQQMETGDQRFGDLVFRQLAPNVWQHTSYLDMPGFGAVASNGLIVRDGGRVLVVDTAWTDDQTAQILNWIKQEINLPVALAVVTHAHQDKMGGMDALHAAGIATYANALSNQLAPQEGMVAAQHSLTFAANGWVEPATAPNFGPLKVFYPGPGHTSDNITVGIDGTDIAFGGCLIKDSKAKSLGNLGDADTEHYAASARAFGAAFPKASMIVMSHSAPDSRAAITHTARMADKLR
T1 sequence (C7C422 29-270 limits assumed): as the sequence (C7C422 29-270, looked up) above

In the case of COc1cccc(-c2cc(CP(=O)(O)O)nc(C(=O)O)c2)c1 [Compound 18c, 4-(3-Methoxyphenyl)-6-(phosphonomethyl)picolinic acid], the IC50 (NDM-1 [1]) is reported as 420 ± 20 nM.
For C[C@H](CS)C(=O)N1CCC[C@H]1C(=O)O [L-captopril, reference compound], the “Zn(II) removal from NDM-1 in equilibrium dialysis” value (ZnZn-NDM-1) was “did not show any evidence of Zn(II) removal”.
For Nc1ccc(-c2cc(CP(=O)(O)O)nc(C(=O)O)c2)cc1 [Compound 18h, 4-(4-Aminophenyl)-6-(phosphonomethyl)picolinic acid], the IC50 (NDM-1 [1]) was 300 ± 10 nM.
Compound O=C(O)c1cccc(CS(=O)(=O)O)n1 [Compound 5, 6-(Sulfomethyl)picolinic acid] has an IC50 (NDM-1 [1]) greater than 10000 nM.
Work on O=C(O)c1cc(-c2ccc(O)cc2)cc(CP(=O)(O)O)n1 [Compound 18e, 4-(4-Hydroxyphenyl)-6-(phosphonomethyl)picolinic acid] yielded an IC50 (NDM-1 [1]) of 480 ± 10 nM.
For COc1ccccc1-c1cc(CP(=O)(O)O)nc(C(=O)O)c1 [Compound 18d, 4-(2-Methoxyphenyl)-6-(phosphonomethyl)picolinic acid], the IC50 (NDM-1 [1]) was 300 ± 10 nM.
Compound O=C(O)c1cccc(-c2ncco2)n1 [Compound 10, 6-(Oxazol-2-yl)picolinic acid] has an IC50 (NDM-1 [1]) greater than 10000 nM.
For Nc1cccc(-c2cc(CP(=O)(O)O)nc(C(=O)O)c2)c1 [Compound 18i, 4-(3-Aminophenyl)-6-(phosphonomethyl)picolinic acid], the IC50 (NDM-1 [1]) was 400 ± 20 nM, the “Zn(II) removal from NDM-1 at 32 μM compound” value (ZnZn-NDM-1) was “only slight Zn(II) removal” and the “Zn(II) retained by NDM-1 at highest tested concentration” value (from here on “Zn(II) retained”) (ZnZn-NDM-1) was “one equivalent of Zn(II) was retained”. The “Zn(II) removal from NDM-1 in equilibrium dialysis” value (ZnZn-NDM-1) was “reduced tendency to remove Zn(II)”.
In the case of O=C(O)c1cc(-c2ccc(Cl)cc2)cc(CP(=O)(O)O)n1 [Compound 18k, 4-(4-Chlorophenyl)-6-(phosphonomethyl)picolinic acid], the IC50 (NDM-1 [1]) is reported as 400 ± 10 nM.
Work on Nc1ccccc1-c1cc(CP(=O)(O)O)nc(C(=O)O)c1 [Compound 18j, 4-(2-Aminophenyl)-6-(phosphonomethyl)picolinic acid] yielded an IC50 (NDM-1 [1]) of 240 ± 10 nM.
In the case of O=C(O)c1cc(-c2ccccc2)cc(CP(=O)(O)O)n1 [Compound 18a, 4-Phenyl-6-(phosphonomethyl)picolinic acid], the IC50 (NDM-1 [1]) is reported as 410 ± 20 nM.
Work on O=C(O)Cc1cccc(C(=O)O)n1 [Compound 3, 6-(Carboxymethyl)picolinic acid] yielded an IC50 (IMP-1) of 59 ± 5 µM, an IC50 (NDM-1 [1]) of 7700 ± 600 nM and an IC50 (NDM-1 [2]) of 2050 ± 90 nM. The “Zn(II) removal from NDM-1 in equilibrium dialysis” value (ZnZn-NDM-1) was “removing only small amounts of Zn(II)” and the IC50 (VIM-2) was 35000 ± 1000 nM.
Compound O=C(O)c1cccc(-c2nccs2)n1 [Compound 9, 6-(Thiazol-2-yl)picolinic acid] has an IC50 (NDM-1 [1]) greater than 10000 nM.
Compound C[C@@H](O)[C@H]1C(=O)N2C(C(=O)O)=C(S[C@@H]3CN[C@H](C(=O)N(C)C)C3)[C@H](C)[C@H]12 [Meropenem, meropenem] has a kcat (NDM-1 [3]) of 15.3 ± 0.4 s⁻¹.
With O=C(O)c1cccc(P(=O)(O)O)n1 [Compound 1, 6-Phosphonopicolinic acid] the IC50 (IMP-1) was 0.85 ± 0.06 µM, the IC50 (NDM-1 [2]) was 64 ± 1 nM and the IC50 (VIM-2) was 850 ± 20 nM.
With O=C(O)c1cc(-c2ccccc2O)cc(CP(=O)(O)O)n1 [Compound 18g, 4-(2-Hydroxyphenyl)-6-(phosphonomethyl)picolinic acid] the IC50 (NDM-1 [1]) was 280 ± 10 nM.
O=C(O)c1cc(-c2cccc(Cl)c2)cc(CP(=O)(O)O)n1 [Compound 18l, 4-(3-Chlorophenyl)-6-(phosphonomethyl)picolinic acid] showed an IC50 (NDM-1 [1]) of 1290 ± 70 nM.
In the case of Fluorocillin, the Km (NDM-1 [4]) is given as 460 nM.
With O=C(O)c1cccc(C(=O)O)n1 [DPA, dipicolinic acid, reference compound] the IC50 (NDM-1 [2]) was 330 ± 40 nM, the “Zn(II) removal from NDM-1 in equilibrium dialysis” value (ZnZn-NDM-1) was “significantly reduced” and the IC50 (VIM-2) was 2340 ± 40 nM.
Compound CN(Cc1cccc(C(=O)O)n1)S(C)(=O)=O [Compound 8, 6-((N-Methylmethylsulfonamido)methyl)picolinic acid] has an IC50 (NDM-1 [1]) greater than 10000 nM.
CS(=O)(=O)Nc1cccc(C(=O)O)n1 [Compound 7, 6-(Methylsulfonamido)picolinic acid] showed an IC50 (NDM-1 [1]) greater than 10000 nM.
O=C(O)c1cc(-c2cccc(O)c2)cc(CP(=O)(O)O)n1 [Compound 18f, 4-(3-Hydroxyphenyl)-6-(phosphonomethyl)picolinic acid] showed an IC50 (NDM-1 [1]) of 280 ± 10 nM.
Work on CS(=O)(=O)Cc1cccc(C(=O)O)n1 [Compound 6, 6-((Methylsulfonyl)methyl)picolinic acid] yielded an IC50 (NDM-1 [1]) greater than 10000 nM.
In the case of O=C(O)c1cc(-c2ccccc2Cl)cc(CP(=O)(O)O)n1 [Compound 18m, 4-(2-Chlorophenyl)-6-(phosphonomethyl)picolinic acid], the IC50 (NDM-1 [1]) is reported as 950 ± 50 nM.
For COc1ccc(-c2cc(CP(=O)(O)O)nc(C(=O)O)c2)cc1 [Compound 18b, 4-(4-Methoxyphenyl)-6-(phosphonomethyl)picolinic acid], the IC50 (NDM-1 [1]) was 200 ± 10 nM, the “Zn(II) removal from NDM-1 at 32 μM compound” value (ZnZn-NDM-1) was “only slight Zn(II) removal” and the “Zn(II) retained” value (ZnZn-NDM-1) was “one equivalent of Zn(II) was retained”. The “Zn(II) removal from NDM-1 in equilibrium dialysis” value (ZnZn-NDM-1) was “reduced tendency to remove Zn(II)”.
For O=C(O)c1cccc(-c2nnn[nH]2)n1 [Compound 4, 6-(1H-Tetrazol-5-yl)picolinic acid], the IC50 (IMP-1) was 22 ± 1 µM, the IC50 (NDM-1 [1]) was 7000 ± 500 nM and the Ki (NDM-1 [1]) was 2200 ± 500 nM. For the same compound, the IC50 (NDM-1 [2]) was 2190 ± 130 nM, the “Zn(II) removal from NDM-1 in equilibrium dialysis” value (ZnZn-NDM-1) was “removing only small amounts of Zn(II)” and the “Inhibition mechanism against NDM-1” value (ZnZn-NDM-1) was “mainly via formation of a ternary complex”. For the same compound, the IC50 (VIM-2) was 27000 ± 2000 nM.
For O=C(O)c1cccc(CP(=O)(O)O)n1 [Compound 2, 6-(Phosphonomethyl)picolinic acid], the IC50 (IMP-1) was 0.63 ± 0.01 µM, the IC50 (NDM-1 [2]) was 68 ± 2 nM and the “Zn(II) retained” value (ZnZn-NDM-1) was “less than one equivalent was retained”. The “Inhibition mechanism against NDM-1” value (ZnZn-NDM-1) was “primarily via Zn(II) removal” and the IC50 (VIM-2) was 620 ± 10 nM.
